Source: patent US9821067B2, “Lipopeptides for delivery of nucleic acids” (Marina Biotech, Inc., priority 2007, dated 2017)
Primed or numbered codes have the meaning given here. No end group written: not given here. C20 = lipophilic group with a 20-carbon chain; PEG27′ = polyethylene glycol, 27 units; cysteamide = C-terminal cysteamide; C16 = N-terminal C16 lipid; C18 = N-terminal C18 lipid; C18″ = C18 lipid

Tests used:
[1] = test system: Cyclophilin B (PPIB) gene expression in A549 cells; test: In vitro assay for PPIB gene expression knockdown in A549 cells; type: cell-based, human; details: for % KD (vs QNeg) A549/PPIB: A549 cells, PPIB mRNA by RT-PCR 24 hours after transfection; for knockdown in the A549/PPIB assay: as compared to both Qneg and vehicle (data for vehicle not shown)
Procedure: Cyclophilin B (PPIB) gene expression knockdown was measured in A549 human alveolar basal epithelial cells. For PPIB gene knockdown measurements, A549 cells were transfected with an interfering RNA formulation, total RNA prepared 24 hours after transfection, and PPIB mRNA assayed by RT-PCR. QRT-PCR of 36B4 (acidic ribosomal phosphoprotein PO) mRNA expression was performed for normalization.
Confluency was about 50% at the time of transfection.
For PPIB gene knockdown cells were lysed and RNA prepared (Invisorb RNA Cell HTS 96-Kit/C, Invitek, Berlin, or RNeasy 96 Kit, Qiagen). Quantitative RT-PCR was performed using One-Step qRT-PCR kit (Invitrogen) on a DNA Engine Opticon2 thermal cycler (BioRad).

[2] = test system: LacZ gene (bacterial galactosidase) in 9L/LacZ cells; test: In vitro assay for LacZ gene expression knockdown in 9L cells
Procedure: 9L/LacZ is a rat gliosarcoma cell line stably expressing the LacZ gene that encodes bacterial galactosidase. LacZ gene knockdown measurements can be used as a primary activity-based in vitro assay for interfering RNA delivery formulations.
For LacZ gene knockdown measurements, 9L/LacZ cells were transfected with an RNAi formulation, and a β-galactosidase assay was performed on cells harvested at day 3 post transfection. An additional assay was performed to quantify protein concentration.
9L/LacZ cells were plated at 8000 cells/well (96-well) and incubated overnight in medium. Confluency was about 15-20% at the time of transfection. Transfection complex was prepared by adding an interfering RNA to OptiMEM™ medium and vortexing, separately adding a delivery formulation to OptiMEM™ medium and vortexing, and finally mixing the interfering RNA in medium with the delivery formulation in medium to make the transfection complex. The medium for incubated cells was replaced with fresh no-serum media (OptiMEM™ without serum) and transfection complex was added to each well. Cells were incubated 5 hrs, then after the addition of 100 microliters complete medium (DMEM plus 10% fetal bovine serum) were incubated overnight at 37° C. and 5% CO2. The next day, 24 hours after transfection, the medium was changed to fresh complete medium and the cells were incubated another 48 hrs at 37° C. and 5% CO2.
For LacZ gene knockdown, the harvested 9L/LacZ cells were washed in PBS, lysed in M-PER™ Reagent (Pierce), and incubated at room temperature for 15 minutes. Lysate was taken from each well for protein assay with a Micro BCA kit (Pierce, Thermo Fisher Scientific) and β-gal assay with All-in-One™ β-Galactosidase Assay Reagent (Pierce).

[3] = N:P ratio 2, β-galactosidase assay day 3 post transfection
[4] = N:P ratio 4, β-galactosidase assay day 3 post transfection

(C16)-HHHHHKHHHKKKHKHKKK-Cysteamide (C16-HHHHHKHHHKKKHKHKKK-cysteamide)
% KD (vs QNeg) A549/PPIB ([1]; N:P ratio 2): 14.7% | % KD (vs QNeg) A549/PPIB ([1]; N:P ratio 4): −19.8% | % KD (vs QNeg) L/9lacZ [2, 3]: 12.0% | % KD (vs QNeg) L/9lacZ [2, 4]: 12.4%

(C18)-HHHHHKHHHKKKHKHKKK-cysteamide (C18-HHHHHKHHHKKKHKHKKK-cysteamide)
% KD (vs QNeg) A549/PPIB ([1]; N:P ratio 2): 25.5% | % KD (vs QNeg) A549/PPIB ([1]; N:P ratio 4): 21.6% | knockdown in the A549/PPIB assay [1]: significant knockdown | % KD (vs QNeg) L/9lacZ [2, 3]: −11.3% | % KD (vs QNeg) L/9lacZ [2, 4]: −19.4%

(C18)-HHHHRRRRRRRR-Cysteamide (C18-HHHHRRRRRRRR-cysteamide)
% KD (vs QNeg) A549/PPIB ([1]; N:P ratio 2): 15.3% | % KD (vs QNeg) L/9lacZ [2, 3]: −0.8%

(C18)-PEG27-HHHHHHHHRRRRRRRR-amide ({C18″-PEG27′}-HHHHHHHHRRRRRRRR-NH2)
% KD (vs QNeg) A549/PPIB ([1]; N:P ratio 2): 30.6% | % KD (vs QNeg) A549/PPIB ([1]; N:P ratio 4): 7.4% | % KD (vs QNeg) L/9lacZ [2, 3]: 9.2% | % KD (vs QNeg) L/9lacZ [2, 4]: −16.1%

(C20)-(H)8(R)8(H)8K-NH-(C20) (C20-HHHHHHHHRRRRRRRRHHHHHHHHK(C20))
% KD (vs QNeg) A549/PPIB ([1]; N:P ratio 2): 29.7% | % KD (vs QNeg) A549/PPIB ([1]; N:P ratio 4): 65.8% | knockdown in the A549/PPIB assay [1]: significant knockdown | % KD (vs QNeg) L/9lacZ [2, 3]: 60.1% | % KD (vs QNeg) L/9lacZ [2, 4]: 57.5%

Ac-GALFLAFLAAALSLMGLWSQPKKKRKV-Cysteamide (Ac-GALFLAFLAAALSLMGLWSQPKKKRKV-cysteamide)
% KD (vs QNeg) A549/PPIB ([1]; N:P ratio 2): 20.5% | % KD (vs QNeg) L/9lacZ [2, 3]: 29.1%

Ac-GALFLAFLAAALSLMGLWSQPKSKRKV-Cysteamide (Ac-GALFLAFLAAALSLMGLWSQPKSKRKV-cysteamide)
% KD (vs QNeg) A549/PPIB ([1]; N:P ratio 2): 15.5% | % KD (vs QNeg) A549/PPIB ([1]; N:P ratio 4): 16.0% | % KD (vs QNeg) L/9lacZ [2, 3]: 29.5% | % KD (vs QNeg) L/9lacZ [2, 4]: −9.3%

Ac-GALFLGFLGAAGSTMGAWSQPKSKRKV-amide (Ac-GALFLGFLGAAGSTMGAWSQPKSKRKV-NH2)
% KD (vs QNeg) A549/PPIB ([1]; N:P ratio 2): −8.1% | % KD (vs QNeg) A549/PPIB ([1]; N:P ratio 4): −3.7% | % KD (vs QNeg) L/9lacZ [2, 3]: −0.4% | % KD (vs QNeg) L/9lacZ [2, 4]: −1.6%

Ac-LIRLWSHLIHIWFQNRRLKWKKK-amide (Ac-LIRLWSHLIHIWFQNRRLKWKKK-NH2)
% KD (vs QNeg) A549/PPIB ([1]; N:P ratio 2): 8.7% | % KD (vs QNeg) A549/PPIB ([1]; N:P ratio 4): −28.8% | % KD (vs QNeg) L/9lacZ [2, 3]: −19.9% | % KD (vs QNeg) L/9lacZ [2, 4]: −4.5%
